Tests used:
[1] = Solubility of progesterone in water and in aqueous AG decanoate (UV absorption at 250 nm); type: physicochemical; conditions: 60° C. 10 min, then 25° C. 20 h
Experimental: Progesterone was heated with water at 60° C. for 10 min, then held at 25° C. for 20 h. […] When the above experiment was repeated with a 1% aqueous solution of AG decanoate (DS 2.59%) the saturated solution contained 4.7×10^−3% progesterone. In the UV analysis of the AG decanoate solution of the progesterone, the appropriate AG decanoate solution without progesterone was used as a spectrometer blank.

[2] = system: ovalbumin (“O.A.”); assay: Assay of adjuvant activity: antibody formation in mice injected with ovalbumin plus arabinogalactan compound; type: in vivo; conditions: for adjuvant activity in antibody formation in comparison to the control: 25 μg ovalbumin in saline with 50, 10 or 2 μg compound, booster day 21, bled days 7, 14, 28, 35
Experimental: In the experiment, 25 μg of ovalbumin (“O.A.”) was injected into mice in a saline solution together with 50, 10, 2 or 0 μg (the control) of the arabinogalactan compounds. The animals were prebled prior to immunization; injected; bled on days 7 and 14; given a booster injection on day 21; and bled on days 28 and 35 for antibody determination.

[3] = system: neutrophil-HUVEC adhesion; assay: Neutrophil-HUVEC adhesion under physiological shear forces (closed-loop capillary tube, video-microscopy); type: cell-based, human; conditions: for effect on neutrophil rolling on activated HUVEC: 1-100 μg/ml
Experimental: The in vitro effects of Compound A-F listed in Table I on leucocyte and endothelial cell adhesion under physiological shear forces was examined as follows.
Human umbilical vein endothelial cells (HUVEC) were grown to confluence on the internal surface of collagen type I coated capillary tubes. Endothelial cells were stimulated for 4 hours with […] (10 ng, Genzyme), which upregulates adhesion molecules such as E-selectin within 4-6 hours. Neutrophils and lymphocytes were collected from normal human donors by venipuncture and separated from the blood on ficoll-histoplaque density gradients. The endothelial cell-coated tubes were then integrated into the closed-loop system. Leukocytes were infused into the assay system at a concentration of 1×10^6-5×10^6 cell/ml in DMEM plus 20 mM HEPES. Shear forces of 1-3 dynes/cm^2 (standard representation of blood flow) were applied via a variable speed peristaltic pump, and interactions between the leukocytes and endothelial cells were monitored by video-microscopy. Comparisons were made of the binding of leukocytes and endothelial cells treated with the 6 compounds and untreated controls.
To observe the effects of the compounds on neutrophil adhesive interactions, the neutrophils were infused and allowed to establish rolling for two minutes before the addition of the compounds. The compounds were added in increasing 1 μg/ml, 10 μg/ml, and 100 μg/ml final concentrations at 2 minute intervals. The interactions were recorded to video tape.

[4] = system: tumor metastases; conditions: mice; cited from earlier work
[5] = Formation of oil-water emulsions with water-soluble lipidated arabinogalactan; type: physicochemical

Compound: CC(=O)[C@H]1CC[C@H]2[C@@H]3CCC4=CC(=O)CC[C@]4(C)[C@H]3CC[C@]12C [Progesterone]
- dissolved progesterone in saturated solution ([1]; 1% aqueous solution of AG decanoate (DS 2.59%)): 4.7×10^−3%
- dissolved progesterone in saturated solution ([1]; water): 8.8×10^−4%

Compound: AG palmitate [high substitution (DS 7.3%) AG palmitate]
- adjuvant activity in antibody formation in comparison to the control [2]: some adjuvant activity

Compound: AG decanoate (DS 2.6%)
- effect on neutrophil rolling on activated HUVEC [3]: no measurable effect

Compound: AG (ultrarefined) [Compound A, reference compound]
- adjuvant activity in antibody formation in comparison to the control [2]: some adjuvant activity
- effect on neutrophil rolling on activated HUVEC [3]: significantly blocked
- reduction in neutrophil adhesion ([3]; during the time course, 1, 10, 100 μg/ml added at 2 minute intervals, IL-stimulated HUVEC): ~75%
- reduction of neutrophil binding to baseline ([3]; even at 10 μg/ml or 100 μg/ml): did not reduce binding to baseline
- effect on tumor metastases [4]: reduce tumor metastases

Compound: AG palmitate (DS 1.7%) [C]
- adjuvant activity in antibody formation in comparison to the control [2]: some adjuvant activity
- adjuvant activity, rank among the three arabinogalactan compounds ([2]; ovalbumin antigen): highest adjuvant activity
- concentration effective in blocking neutrophil-HUVEC adhesion [3]: 1 µg/mL
- effect on neutrophil rolling on activated HUVEC [3]: significantly blocked
- stability of emulsion with safflower oil ([5]; 2 mL 1.0% aqueous solution mixed with safflower oil (4 g), room temperature): no separation of phases was evident after several days
- behaviour on shaking with hexane ([5]; 2 mL 1% solution shaken with hexane (1 mL)): upper phase became extremely viscous and opaque and remained in this state for several days

Compound: galactan from fractional hydrolysis of AG (arabinose 1.5%)
- effect on neutrophil rolling on activated HUVEC [3]: no measurable effect

Compound: AG dodecyl ether (DS 1.3%) [F]
- effect on neutrophil rolling on activated HUVEC [3]: no measurable effect

Compound: AG stearate (DS 1.7%) [B]
- concentration effective in blocking neutrophil-HUVEC adhesion [3]: 1 µg/mL
- effect on neutrophil rolling on activated HUVEC [3]: significantly blocked

Source: patent US20010036933A1, “Water soluble lipidated arabinogalactan” (The University of Montana, priority 1996, published 2001)
